Results published in patent publication US11591355B2 (Peloton Therapeutics, Inc., priority 2017, dated 2023).

Columns and labels:
Human CD73 = molecular target: T1, Human CD73 (Homo sapiens, UniProt P21589); experiment: CD73 Enzyme Assay; type: biochemical; settings: 0.25 nM hCD73, 25 μM AMP, kinetic read at 360 nm; read-out: CD73 Enzyme Assay IC50
T1 construct: purchased R&D Systems; host or cells: CHO cells
T1 sequence (P21589 27-549): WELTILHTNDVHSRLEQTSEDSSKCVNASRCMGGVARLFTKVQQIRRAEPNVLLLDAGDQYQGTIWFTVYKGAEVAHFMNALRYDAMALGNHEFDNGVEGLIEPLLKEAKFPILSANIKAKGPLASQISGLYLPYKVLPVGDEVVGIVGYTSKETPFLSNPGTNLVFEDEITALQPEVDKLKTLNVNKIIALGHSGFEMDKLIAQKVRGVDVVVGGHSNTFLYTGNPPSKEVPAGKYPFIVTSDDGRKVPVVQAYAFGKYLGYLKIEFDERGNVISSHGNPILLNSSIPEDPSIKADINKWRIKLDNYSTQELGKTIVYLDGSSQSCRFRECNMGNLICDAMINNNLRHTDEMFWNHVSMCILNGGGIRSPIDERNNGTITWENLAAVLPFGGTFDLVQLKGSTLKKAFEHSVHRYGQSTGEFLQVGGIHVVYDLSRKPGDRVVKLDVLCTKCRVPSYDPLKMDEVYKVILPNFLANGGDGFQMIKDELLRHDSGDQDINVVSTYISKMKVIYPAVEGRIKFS

[1] = molecular target: T2, CD73 on U138 human neuroglioma cells (Homo sapiens, UniProt P21589); experiment: CD73 Cell-Based Assay; settings: U138 cells, AMP substrate, 2 hours at 37° C., inorganic phosphate by malachite green
T2 construct: U138 cells were obtained from ATCC and cultured in DMEM with 10% FBS; host or cells: U138 human neuroglioma cells
T2 sequence (P21589 27-549): T1 sequence (P21589 27-549)
Outline: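 Whole U138 cells washed free of phosphate were incubated with 200 μM AMP (mixture concentration before equal-volume addition) plus compound in HEPES-buffered saline, pH 7.4, for 2 h at 37 °C, 5% CO2. Adenosine-forming activity read as inorganic phosphate released into supernatant by malachite green.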

IC50 (Human CD73) [nM]	IC50 [1] [nM]	SMILES
10 to 100	10 to 100	CC(C)Nc1nc(Cl)nc2c1ccn2[C@@H]1O[C@H](CS(=O)(=O)CP(=O)(O)O)[C@@H](O)[C@H]1O [Compound 162, [(2S,3S,4R,5R)-5-[2-chloro-4-(isopropyl-amino)pyrrolo[2,3-d]-pyrimidin-7-yl]-3,4-dihydroxy-tetrahydro-furan-2-yl]methyl-sulfonylmethylphos-phonic acid]
< 10	< 10	C[C@@H](Nc1nc(Cl)nc2c1ccn2[C@@H]1O[C@H](CS(=O)(=O)CP(=O)(O)O)[C@@H](O)[C@H]1O)c1ccc(F)cc1 [Compound 167, [(2S,3S,4R,5R)-5-[2-chloro-4-[[(1R)-1-(4-fluorophenyl)ethyl]-amino]pyrrolo[2,3-d]-pyrimidin-7-yl]-3,4-dihydroxy-tetrahydro-furan-2-yl]methyl-sulfonylmethylphos-phonic acid]
< 10	< 10	C[C@@H](Nc1nc(Cl)nc2c1ccn2[C@@H]1O[C@H](CS(=O)(=O)CP(=O)(O)O)[C@@H](O)[C@H]1O)c1ccccc1F [Compound 168, [(2S,3S,4R,5R)-5-[2-chloro-4-[[(1R)-1-(2-fluorophenyl)ethyl]-amino]pyrrolo[2,3-d]-pyrimidin-7-yl]-3,4-dihydroxy-tetrahydro-furan-2-yl]methyl-sulfonylmethylphos-phonic acid]
< 10	< 10	Cc1ccc([C@@H](C)Nc2nc(Cl)nc3c2ccn3[C@@H]2O[C@H](CS(=O)(=O)CP(=O)(O)O)[C@@H](O)[C@H]2O)cc1 [Compound 169, [(2S,3S,4R,5R)-5-[2-chloro-4-[[(1R)-1-(p-tolyl)ethyl]amino]-pyrrolo[2,3-d]-pyrimidin-7-yl]-3,4-dihydroxy-tetrahydro-furan-2-yl]methyl-sulfonylmethylphos-phonic acid]
< 10	< 10	Cc1ccc([C@H](C)Nc2nc(Cl)nc3c2ccn3[C@@H]2O[C@H](CS(=O)(=O)CP(=O)(O)O)[C@@H](O)[C@H]2O)cc1 [Compound 170, [(2S,3S,4R,5R)-5-[2-chloro-4-[[(1S)-1-(p-tolyl)ethyl]amino]-pyrrolo[2,3-d]-pyrimidin-7-yl]-3,4-dihydroxy-tetrahydro-furan-2-yl]methyl-sulfonylmethylphos-phonic acid]
10 to 100	10 to 100	CCNc1nc(Cl)nc2c1ccn2[C@@H]1O[C@H](CS(=O)(=O)CP(=O)(O)O)[C@@H](O)[C@H]1O [Compound 176, [(2S,3S,4R,5R)-5-[2-chloro-4-(ethylamino)-pyrrolo[2,3-d]-pyrimidin-7-yl]-3,4-dihydroxy-tetrahydro-furan-2-yl]methyl-sulfonylmethylphos-phonic acid]
< 10	< 10	C[C@@H](Nc1nc(Cl)nc2c1ccn2[C@@H]1O[C@H](CS(=O)(=O)CP(=O)(O)O)[C@@H](O)[C@H]1O)c1ccc(F)cc1F [Compound 178, (((((2S,3S,4R,5R)-5-(2-chloro-4-(((R)-1-(2,4-difluorophenyl)ethyl)amino)-7H-pyrrolo[2,3-d]pyrimidin-7-yl)-3,4-dihydroxytetrahydrofuran-2-yl)methyl)sulfonyl)methyl)phosphonic acid]
< 10	< 10	C[C@@H](Nc1nc(Cl)nc2c1ccn2[C@@H]1O[C@H](CS(=O)(=O)CP(=O)(O)O)[C@@H](O)[C@H]1O)c1ccc(Cl)cc1 [Compound 179, [(2S,3S,4R,5R)-5-[2-chloro-4-[[(1R)-1-(4-chlorophenyl)ethyl]-amino]pyrrolo[2,3-d]-pyrimidin-7-yl]-3,4-dihydroxy-tetrahydro-furan-2-yl]methyl-sulfonylmethylphos-phonic acid]
< 10	< 10	C[C@@H](Nc1nc(Cl)nc2c1ccn2[C@@H]1O[C@H](CS(=O)(=O)CP(=O)(O)O)[C@@H](O)[C@H]1O)c1cccc(C#N)c1 [Compound 180, [(2S,3S,4R,5R)-5-[2-chloro-4-[[(1R)-1-(3-cyanophenyl)ethyl]-amino]pyrrolo[2,3-d]-pyrimidin-7-yl]-3,4-dihydroxy-tetrahydro-furan-2-yl]methyl-sulfonylmethylphos-phonic acid]
< 10	< 10	C[C@H](Nc1nc(Cl)nc2c1ccn2[C@@H]1O[C@H](CS(=O)(=O)CP(=O)(O)O)[C@@H](O)[C@H]1O)c1ccc(C#N)cc1 [Compound 181, [(2S,3S,4R,5R)-5-[2-chloro-4-[[(1S)-1-(4-cyanophenyl)ethyl]-amino]pyrrolo[2,3-d]-pyrimidin-7-yl]-3,4-dihydroxy-tetrahydro-furan-2-yl]methyl-sulfonylmethylphos-phonic acid]

More lines, now with the values behind:

SMILES	IC50 (Human CD73) [nM]	IC50 [1] [nM]
CC(C)(C)C(=O)OCOP(=O)(O)CS(=O)(=O)C[C@H]1O[C@@H](n2ccc3c(NC4CCCC4)nc(Cl)nc32)[C@H](O)[C@@H]1O [Compound 161, [(2S,3S,4R,5R)-5-[2-chloro-4-(cyclopentyl-amino)pyrrolo[2,3-d]-pyrimidin-7-yl]-3,4-dihydroxy-tetrahydro-furan-2-yl]methyl-sulfonylmethyl-(2,2-dimethylpropanoyl-oxymethoxy)phos-phinic acid]	< 10	< 10
O=P(O)(O)CS(=O)(=O)C[C@H]1O[C@@H](n2ccc3c(N4CCCC4)nc(Cl)nc32)[C@H](O)[C@@H]1O [Compound 163, [(2S,3S,4R,5R)-5-(2-chloro-4-pyrrolidin-1-yl-pyrrolo[2,3-d]-pyrimidin-7-yl)-3,4-dihydroxy-tetrahydro-furan-2-yl]methyl-sulfonylmethylphos-phonic acid]	10 to 100	10 to 100
O=P(O)(O)CS(=O)(=O)C[C@H]1O[C@@H](n2ccc3c(N4CCC(F)(F)C4)nc(Cl)nc32)[C@H](O)[C@@H]1O [Compound 164, [(2S,3S,4R,5R)-5-[2-chloro-4-(3,3-difluoro-pyrrolidin-1-yl)-pyrrolo[2,3-d]-pyrimidin-7-yl]-3,4-dihydroxy-tetrahydro-furan-2-yl]methyl-sulfonylmethylphos-phonic acid]	< 10	< 10
O=P(O)(O)CS(=O)(=O)C[C@H]1O[C@@H](n2ccc3c(NC4CCC(F)(F)C4)nc(Cl)nc32)[C@H](O)[C@@H]1O (stereo partly drawn) [Compound 171, [(2S,3S,4R,5R)-5-[2-chloro-4-[(3,3-difluoro-cyclopentyl)amino]-pyrrolo[2,3-d]-pyrimidin-7-yl]-3,4-dihydroxy-tetrahydro-furan-2-yl]methyl-sulfonylmethylphos-phonic acid]	< 10	< 10
O=P(O)(O)CS(=O)(=O)C[C@H]1O[C@@H](n2ccc3c(NC4CCC4)nc(Cl)nc32)[C@H](O)[C@@H]1O [Compound 172, [(2S,3S,4R,5R)-5-[2-chloro-4-(cyclobutyl-amino)pyrrolo[2,3-d]-pyrimidin-7-yl]-3,4-dihydroxy-tetrahydro-furan-2-yl]methyl-sulfonylmethylphos-phonic acid]	< 10	< 10
O=P(O)(O)CS(=O)(=O)C[C@H]1O[C@@H](n2ccc3c(NC4CC(F)(F)C4)nc(Cl)nc32)[C@H](O)[C@@H]1O [Compound 173, [(2S,3S,4R,5R)-5-[2-chloro-4-[(3,3-difluoro-cyclobutyl)amino]-pyrrolo[2,3-d]-pyrimidin-7-yl]-3,4-dihydroxy-tetrahydro-furan-2-yl]methyl-sulfonylmethylphos-phonic acid]	< 10	< 10
O=P(O)(O)CS(=O)(=O)C[C@H]1O[C@@H](n2ccc3c(NC4CCCCC4)nc(Cl)nc32)[C@H](O)[C@@H]1O [Compound 174, [(2S,3S,4R,5R)-5-[2-chloro-4-(cyclohexyl-amino)pyrrolo[2,3-d]-pyrimidin-7-yl]-3,4-dihydroxy-tetrahydro-furan-2-yl]methyl-sulfonylmethylphos-phonic acid]	< 10	< 10
O=P(O)(O)CS(=O)(=O)C[C@H]1O[C@@H](n2ccc3c(N4CC5CC5C4)nc(Cl)nc32)[C@H](O)[C@@H]1O (stereo partly drawn) [Compound 175, [(2S,3S,4R,5R)-5-[4-(3-azabicyclo[3.1.0]-hexan-3-yl)-2-chloro-pyrrolo[2,3-d]-pyrimidin-7-yl]-3,4-dihydroxy-tetrahydro-furan-2-yl]methyl-sulfonylmethylphos-phonic acid]	10 to 100	10 to 100
CC(C)N(C)c1nc(Cl)nc2c1ccn2[C@@H]1O[C@H](CS(=O)(=O)CP(=O)(O)O)[C@@H](O)[C@H]1O [Compound 177, [(2S,3S,4R,5R)-5-[2-chloro-4-[isopropyl-(methyl)amino]-pyrrolo[2,3-d]-pyrimidin-7-yl]-3,4-dihydroxy-tetrahydro-furan-2-yl]methyl-sulfonylmethylphos-phonic acid]	< 10	< 10
O=P(O)(O)CS(=O)(=O)C[C@H]1O[C@@H](n2ccc3c(NC4CCC(F)(F)CC4)nc(Cl)nc32)[C@H](O)[C@@H]1O [Compound 182, [(2S,3S,4R,5R)-5-[2-chloro-4-[(4,4-difluoro-cyclohexyl)amino]-pyrrolo[2,3-d]-pyrimidin-7-yl]-3,4-dihydroxy-tetrahydro-furan-2-yl]methyl-sulfonylmethylphos-phonic acid]	< 10	< 10
